A value given as a limit tells only on which side of the number the result lay.

Test [1] relates to fMLF/CB-induced human neutrophils. The experiment in a line: Superoxide anion generation in fMLF/CB-induced human neutrophils. Type of test: cell-based. The conditions noted are these: for IC50: mean ± S.E.M. (n = 3 or 4); for inhibition at 10 µM / Superoxide Anion Inhibition (%): at 10 μM concentration, mean ± S.E.M. On the procedure: (§1) Blood samples were collected from healthy adult donors (20-32 years) via venipuncture in accordance with the standard protocol approved by the local institutional review board. Human neutrophils were isolated from peripheral blood through dextran sedimentation, centrifugation in a Ficoll-Hypaque gradient, and hypotonic lysis of red blood cells.
(§2) In accordance with the above-mentioned protocol, assays were performed to measure superoxide anion generation based on the superoxide dismutase-inhibitable reduction of ferricytochrome c; methoxy-succinyl-alanyl-alanyl-prolyl-valine-p-nitroanilide (MeO-Suc-Ala-Ala-Pro-Val-p-nitroanilide) was used as the enzyme substrate for the detection of elastase release.

Test [2] shares this test system. The experiment in a line: Elastase release in fMLF/CB-induced human neutrophils. Particulars: for IC50: mean ± S.E.M. (n = 3 or 4); for inhibition at 10 µM / Elastase Release Inhibition (%): at 10 μM concentration, mean ± S.E.M. Type of test: cell-based. On the procedure: as §1, §2
Another test deals with T1, FPR1 receptor (Homo sapiens, UniProt P21462).
T1 construct: endogenous in cells; host or cells: human neutrophils
T1 sequence (P21462 1-350): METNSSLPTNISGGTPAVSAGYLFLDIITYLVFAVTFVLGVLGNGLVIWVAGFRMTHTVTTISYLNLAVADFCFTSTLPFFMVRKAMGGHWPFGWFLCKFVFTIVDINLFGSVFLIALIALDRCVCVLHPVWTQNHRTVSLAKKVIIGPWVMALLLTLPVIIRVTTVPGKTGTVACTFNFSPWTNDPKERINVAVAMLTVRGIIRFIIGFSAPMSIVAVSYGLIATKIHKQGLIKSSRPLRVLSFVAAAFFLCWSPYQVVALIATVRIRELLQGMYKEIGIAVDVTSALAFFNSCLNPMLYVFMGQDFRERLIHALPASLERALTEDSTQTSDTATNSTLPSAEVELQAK
Nature of the test: FPR1 receptor binding assay (fNLFNYK, flow cytometry) in human neutrophils. The conditions noted are these: 10 μM test substance, fNLFNYK 2 nM. On the procedure: Receptor binding assays of the present invention were performed via FACScan™ flow Cytometer analysis of N-formyl-Nle-Leu-Phe-Nle-Tyr-Lys-fluorescein (fNLFNYK; a fluorescent analog of N-formylmethionyl-leucyl-phenylalanine (fMLF)) binding to receptor of human neutrophils; The neutrophils were preincubated with test compounds at 4° C. for 5 min and then labelled with fNLFNYK for 30 min, then the cells were immediately analyzed via flow cytometry.
The receptor-binding assay is based on the binding between N-formyl-Nle-Leu-Phe-Nle-Tyr-Lys-fluorescein (fNLFNYK) and the […] receptor of human neutrophil.

With `C=C(CC[C@@H](C)C1CCC([C@H]2CC=C3C[C@@H](O)CC[C@]3(C)C2=O)[C@]1(C)CCO)C(C)C` (stereo partly drawn) [Compound 3, 8αH-3β,11-dihydroxy-24-methylene-9,11-secocholest-5-en-9-one], the IC50 in test [1] (Homo sapiens, Neutrophil) was 1.63 to 8.07 µM; in test [1], 1.97 ± 0.12 µM; in test [2] (Homo sapiens, Neutrophil), 1.63 to 8.07 µM; in test [2] it was 3.12 ± 0.07 µM. Besides, the inhibition at 10 µM in test [1] (Neutrophil) was 90.5 ± 2.44%; in test [2] (Neutrophil), 112 ± 5.01%.

As for `C=C(CC[C@@H](C)C1CCC([C@@H]2CC=C3C[C@@H](O)CC[C@]3(C)C2=O)[C@]1(C)CCO)C(C)C` (stereo partly drawn) [Compound 4, 8βH-3β,11-dihydroxy-24-methylene-9,11-secocholest-5-en-9-one], the IC50 in test [1] (Homo sapiens, Neutrophil) was 1.63 to 8.07 µM; in test [1], 2.96 ± 0.91 µM; in test [2] (Homo sapiens, Neutrophil) it was 1.63 to 8.07 µM; in test [2], 1.63 ± 0.15 µM. For the same molecule, the inhibition at 10 µM came out at 91.1 ± 4.51% in test [1] (Neutrophil) and 93.7 ± 1.23% in test [2] (Neutrophil).

As for `CC(C)[C@@H](C)CC[C@@H](C)[C@H]1CC[C@@H]([C@@H]2CC=C3C[C@@H](O)CC[C@]3(C)C2=O)[C@]1(C)CCO` [Compound 6, (24S)-3β,11-dihydroxy-24-methyl-9,11-secocholest-5-en-9-one], in test [1], the “Superoxide Anion Inhibition (%)” value is on record as 60.51 ± 4.06 % and the concentration for half-maximal inhibition (IC50) was 4.09 ± 0.5 µM. In test [2], the “Elastase Release Inhibition (%)” value amounted to 25.38 ± 6.68 % and the IC50 was over 10 µM.

For `CC(C)[C@@H](C)[C@@]1(C)C[C@@H]1[C@@H](C)[C@H]1CC[C@@H]([C@@H]2CC=C3C[C@@H](O)CC[C@]3(C)C2=O)[C@]1(C)CCO` [Compound 7, 3β,11-dihydroxy-9,11-secogorgost-5-en-9-one], in test [1], the “Superoxide Anion Inhibition (%)” value came to 10.29 ± 5.42 % and the IC50 was over 10 µM. Moreover, in test [2], the “Elastase Release Inhibition (%)” value is listed as 18.87 ± 3.86 % and the IC50 was over 10 µM.

In the case of leptosterol A [Compound 5], in test [1], the “Superoxide Anion Inhibition (%)” value is reported as 57.93 ± 2.30 % and the midpoint of inhibition, the IC50, lay at 8.07 ± 0.53 µM. Further, in test [2], the “Elastase Release Inhibition (%)” value was determined as 86.32 ± 2.91 % and the IC50 was 4.73 ± 0.57 µM.

Consider sinleptosterol A [Compound 1], for which, in test [1], the “Superoxide Anion Inhibition (%)” value stood at 64.76 ± 3.42 % and the IC50 worked out at 7.07 ± 0.52 µM. Moreover, in test [2], the “Elastase Release Inhibition (%)” value turned out to be 65.04 ± 2.76 % and the IC50 was 7.57 ± 0.4 µM. The “binding to FPR1 receptor (inhibition of fNLFNYK binding)” value on FPR1 receptor is “low affinity”.

Consider sinleptosterol B [Compound 2], for which, in test [1], the “Superoxide Anion Inhibition (%)” value was determined as 76.30 ± 5.09 % and the half-inhibitory concentration (IC50) came out at 4.68 ± 0.57 µM. Also, in test [2], the “Elastase Release Inhibition (%)” value is 105.09 ± 5.25 % and half-maximal inhibition (IC50) required 4.29 ± 0.25 µM.

What is called IC50 is the midpoint of a concentration-inhibition curve. A high value points to weaker potency. Usually inhibition stands for the drop in the measured response relative to a control, in per cent.

Values taken from patent US12274704B2, “9,11-secosteroids and the use of 9,11-secosteroids in preparing pharmaceutical compositions for inhibiting inflammation” (Chang Gung University of Science and Technology, priority 2020, dated 2025).
